# Key:
# AMPK = settings: HepG2 cells, cultured for 16 or 24 hours, FIG. 9
# [1] = test system: wild-type mice fed an HFHF diet; experiment: Anti-obesity/anti-steatohepatitis effect in mice fed an HFHF diet, ebastine after 4 weeks; format: in vivo; settings: HFHF diet 20 weeks
# Experimental: (§1) Body weights were measured once every 3 to 4 days for 20 weeks, and the liver was isolated at the end of the experiment. Thereafter, a histological examination was performed.
# HepG2 cells = experiment: Fat accumulation in HepG2 cells treated with AMPK activator and PAOA; format: cell-based; settings: PAOA 1 mM, FIG. 8
# Experimental: Specifically, HepG2 cells were cultured, and then treated with various types of AMPK activators. Thereafter, the cells were treated with palmitic acid and oleic acid (PAOA) at a concentration of 1 mM, and further cultured, and the degree of fat accumulation was then confirmed.
# [2] = test system: wild-type mice fed an HFHF diet; experiment: Therapeutic effect on steatohepatitis in mice fed an HFHF diet, ebastine after 16 weeks; format: in vivo; settings: HFHF diet 20 weeks
# Experimental: as §1
# [3] = test system: wild-type mice fed a CDAHFD; experiment: Anti-steatohepatitis effect in mice fed a CDAHFD, ebastine after 2 weeks; format: in vivo; settings: CDAHFD 6 weeks, vs control
# Experimental: Body weights were measured once every 3 to 4 days for 6 weeks, and the liver was isolated at the end of the experiment. Thereafter, a histological examination was performed.
smiles,measurement,setting,value
CC(C)(C)c1ccc(C(=O)CCCN2CCC(OC(c3ccccc3)c3ccccc3)CC2)cc1 [ebastine],amount of AMPK,AMPK,increased
same,amount of phosphorylated AMPK,AMPK,increased
same,weight of the liver,"[1]; ebastine 5 mg/kg after 4 weeks, FIG. 13C",lowest
same,body weight gain,"[1]; ebastine 1 and 5 mg/kg after 4 weeks, vs control, FIG. 13A",less
same,liver shape observed with the naked eye,"[1]; ebastine after 4 weeks, FIG. 13B",close to a normal shape
same,expression level of MKRN1 in the liver (immunohistochemistry),"[1]; ebastine after 4 weeks, vs control",decreased
same,fat accumulation in the liver (H&E),"[1]; ebastine after 4 weeks, vs control, FIG. 13E",almost no fat accumulated in the liver
same,liver fibrosis (Sirius Red),"[1]; ebastine after 4 weeks, vs control, FIG. 13F",did not progress
same,liver inflammation (F4/80 IHC),"[1]; ebastine after 4 weeks, vs control, FIG. 13G",suppressed
same,degree of fat accumulation,HepG2 cells,effective in suppressing fat accumulation
same,weight of the liver,"[2]; ebastine 5 mg/kg after 16 weeks, FIG. 15C",lowest
same,body weight change,"[2]; ebastine 1 and 5 mg/kg after 16 weeks (for 4 weeks), vs control, FIG. 15A",no difference
same,liver shape observed with the naked eye,"[2]; ebastine after 16 weeks, FIG. 15B",close to a normal shape
same,expression level of MKRN1 in the liver (immunohistochemistry),"[2]; ebastine after 16 weeks, vs control, FIG. 15D",decreased
same,fat accumulation in the liver (H&E),"[2]; ebastine after 16 weeks, vs control, FIG. 15E",almost no fat accumulated in the liver
same,liver fibrosis (Sirius Red),"[2]; ebastine after 16 weeks, vs control, FIG. 15F",did not progress
same,liver inflammation (F4/80 IHC),"[2]; ebastine after 16 weeks, vs control, FIG. 15G",suppressed
same,expression levels of fibrosis- and inflammation-related genes in the liver (RT-PCR),"[2]; ebastine after 16 weeks, vs control, FIG. 15H",generally suppressed
same,body weight,"[3]; ebastine 1 and 5 mg/kg after 2 weeks, FIG. 14A",no significant difference
same,liver condition observed with the naked eye,"[3]; ebastine after 2 weeks, FIG. 14B",appeared similar
same,liver weight,"[3]; ebastine after 2 weeks, FIG. 14C",no difference
same,expression level of MKRN1 in the liver (immunohistochemistry),"[3]; ebastine after 2 weeks, FIG. 14D",decreased
same,fat accumulation in the liver (H&E),"[3]; ebastine after 2 weeks, FIG. 14E",almost no fat accumulated in the liver
same,liver fibrosis (Sirius Red),"[3]; ebastine after 2 weeks, FIG. 14F",did not progress
same,liver inflammation (F4/80 IHC),"[3]; ebastine after 2 weeks, FIG. 14G",suppressed
